Read-outs that look alike come from different tables or passages of the source.
Tests used:
M. marinum luxCDABE = format: cell-based, Mycobacterium marinum; details: for M. marinum luxCDABE normalised growth, control=1.00, mean / M. marinum luxCDABE normalised growth, control = 1.00, mean: 10 µM
[1] = tested on: M. marinum in BV2 microglial cells; format: cell-based, Mycobacterium marinum; details: for BV2 / M. marinum normalised growth, control=1.00, mean / hit in BV2/M. marinum assay True/False: 10 µM
[2] = tested on: M. marinum in A. castellanii; format: cell-based, Mycobacterium marinum; details: for A. castellanii / M. marinum normalised growth, control=1.00, mean / Hits A. castellanii/M. marinum assay True/False: 10 µM
Mtb H37Rv in THP-1 = tested on: Mtb H37Rv in THP-1; set-up: method as in Sorrentino et al, 2015; details: ref Sorrentino et al, 2015, cited from earlier work; for Extracellular MIC90/ Inracellular MIC90: ratio
Mtb H37Rv = tested on: Mtb H37Rv; set-up: method as in Sorrentino et al, 2015; details: ref Sorrentino et al, 2015; cited from earlier work
M. marinum GFP = format: cell-based, Mycobacterium marinum; details: for M. marinum GFP normalised growth, control=1.00, mean: 10 µM, antibiotic assay
[3] = THP1 / Mtb H37Rv infection assay

| Compound | Growth inhibition / Cytotoxicity assays: BV2 cells (BV2 cells) | Growth inhibition / Cytotoxicity assays: D. discoideum GFP-ABD (D. discoideum GFP-ABD) | Antibiotic assays: M. marinum luxCDABE (M. marinum luxCDABE) | Intracellular infection assays: BV2 / M. marinum [1] | Intracellular infection assays: A. castellanii / M. marinum [2] | D. discoideum GFP-ABD normalised growth, control=1.00, mean (D. discoideum GFP-ABD; 10 µM) | M. marinum luxCDABE normalised growth, control=1.00, mean (M. marinum luxCDABE) | IC50 [1] [µM] | BV2 / M. marinum normalised growth, control=1.00, mean [1] | Intracelullar MIC90 in THP-1 (Mtb H37Rv in THP-1; [3]) [µM] | Extracellular MIC90/ Inracellular MIC90 (Mtb H37Rv in THP-1) | Extracellular MIC90 (Mtb H37Rv) [µM] | A. castellanii / M. marinum normalised growth, control=1.00, mean [2] | M. marinum GFP normalised growth, control=1.00, mean (M. marinum GFP) | antibiotic activity in M. marinum growth assay (M. marinum GFP; broth) | M. marinum luxCDABE normalised growth, control = 1.00, mean (M. marinum luxCDABE) | hit in BV2/M. marinum assay True/False [1] | Intracelullar MIC90 in THP-1 (Mtb H37Rv in THP-1; Mtb H37Rv-infected THP1 cells) [µM] | Hits A. castellanii/M. marinum assay True/False [2] | D. discoideum GFP-ABD normalised growth, control = 1.00, mean (D. discoideum GFP-ABD; 10 µM) |
| --- | --- | --- | --- | --- | --- | --- | --- | --- | --- | --- | --- | --- | --- | --- | --- | --- | --- | --- | --- | --- |
| N=C(N)c1ccc(CCN2CCC(c3nc(COCC(F)(F)F)c(-c4ccc(F)cc4)o3)CC2)cc1.O=C(O)C(F)(F)F.O=C(O)C(F)(F)F [GI247341A] | False | 0.77 | 0.00 | 1.21 | 1.18 |  |  |  |  |  |  |  |  |  |  |  |  |  |  |  |
| O=C(NC1=NCCS1)c1sc2cc(F)ccc2c1Cl [GSK1107112A] | False | 0.0367 | 0.10 | 1.29 | 0.90 |  |  |  |  |  |  |  |  |  |  |  |  |  |  |  |
| c1ccc(-c2nnc(Sc3ccnc(N4CCN(c5ccncc5)CC4)n3)n2CCCN2CCOCC2)nc1 [GSK547543A] | False | 0.87 | 0.00 | 1.22 | 0.99 |  |  |  |  |  |  |  |  |  |  |  |  |  |  |  |
| CC(C)(C)C(=O)CC1(O)Oc2ccccc2N=C1C=C(O)C(C)(C)C (centres unmarked) [GSK262906A] | False | 0.89 | 1.00 | 1.68 | 1.04 |  |  |  |  |  |  |  |  |  |  |  |  |  |  |  |
| CCC(Sc1nc2ccccc2o1)C(=O)Nc1nccs1 (centres unmarked) [GSK829969A] | True | 0.94 | 0.00 | 1.56 | 1.58 |  |  |  |  |  |  |  |  |  |  |  |  |  |  |  |
| C=CCNc1nc(SC)nc2ccccc12 [GSK353071A] |  |  |  |  |  | 0.92 | 0.095 | 4.77 | 0.53 | 1.85 | 1.73 | 3.2 | 0.77 | 0.09 |  |  |  |  |  |  |
| COc1ccc(Nc2ccccc2NC(=O)c2ccc(O)nc2)cc1 [GSK1051703A] |  |  |  |  |  | 1.00 | 1.00 | 6.47 | 0.65 | 5.55 | 1.28 | 7.1 | 1.00 | 0.84 |  |  |  |  |  |  |
| Br.CCc1ccccc1OCCCON1C(=N)N=C(N)NC1(C)C [BRL-10143SA] |  |  |  |  |  | 0.53 | 0.00 | 4.19 | 0.55 | 1.85 | 1.73 | 3.2 | 2.62 | 0.04 |  |  |  |  |  |  |
| COc1ccc(-c2nc(-c3cccc(NC(=O)Cc4ccc(F)cc4)c3)no2)cc1OC [GSK2043267A] |  |  |  |  |  | 1.18 | 0.00 | 6.69 | 0.77 | 0.21 | 17.62 | 3.7 | 0.86 | 0.97 | strong antibiotic activity |  |  |  |  |  |
| Br.CC(C)(C)c1ccccc1OCCCON1C(=N)N=C(N)NC1(C)C [BRL-7940SA] |  |  |  |  |  | 0.67 | 0.00 | 3.14 | 0.53 | 1.85 | 1.24 | 2.3 | 2.62 | 0.04 |  |  |  |  |  |  |
| Cc1ccc2nc(C(F)(F)F)c(C(=O)NCc3cccc(OC(C)C)c3)n2c1 [GSK1829733A] |  |  |  |  |  | 1.05 | 0.00 | 3.35 | 0.69 | 1.85 | 1.13 | 2.1 | 0.68 | 0.09 |  |  |  |  |  |  |
| Cc1ccc2nc(C(F)(F)F)c(C(=O)NCc3cc(Cl)cc(Cl)c3)n2c1 [GSK1829736A] |  |  |  |  |  | 0.93 | 0.00 | 2.21 | 0.41 | 0.61 | 1.47 | 0.9 | 0.60 | 0.04 |  | 0,00 | TRUE | 0.61 | FALSE |  |
| O=C(c1cc2c(s1)CCC2)N1CCN(Cc2ccc3c(c2)OCO3)CC1 [GSK1731114A] |  |  |  |  |  | 0.44 | 0.085 | 9.43 | 0.81 | 5.55 | 0.95 | 5.3 | 0.92 | 0.30 |  |  |  |  |  |  |
| N=C(Nc1nc(-c2ccccn2)cc2ccccc12)c1cccc(Cl)c1 [GSK381407A] |  |  |  |  |  | 0.98 | 0.00 | 7.71 | 0.65 | 0.61 | 7.38 | 4.5 | 1.06 | 7.92e-5 |  |  |  |  |  |  |
| Cc1nnc(NCc2cccc(Cl)c2)c2ccccc12 [GSK1302651A] |  |  |  |  |  | 0.97 | 0.00 | 4.41 | 0.87 | 5.55 | 1.06 | 5.9 | 1.01 | 0.56 |  |  |  |  |  |  |
| Cc1ccc2nc(C)c(C(=O)NCc3ccco3)n2c1 [GSK1829819A] |  |  |  |  |  | 1.08 | 0.00 | 3.9 | 0.37 | 0.61 | 2.13 | 1.3 | 0.66 | 0.08 |  | 0,00 | TRUE | 0.61 | FALSE | 1,08 |

From paper PMC5834492, “Antimycobacterial drug discovery using Mycobacteria-infected amoebae identifies anti-infectives and new molecular targets” (Scientific Reports, 2018)
